# Test results from US9732087B2, “Diamino-pyridine, pyrimidine, and pyridazine modulators of the histamine H4 receptor” (JANSSEN PHARMACEUTICA NV, priority 2008, dated 2017).
# Structures can show the parent of a compound that is named as a salt.
# Molecular target: human H4 receptor (Homo sapiens (Human), UniProt Q9H3N8)
# Experiment: Binding assay on recombinant human histamine H4 receptor ([3H]histamine competition, SK-N-MC cell membranes)
# Conditions: membranes harvested with cell harvester; [3H]histamine 10 nM; average of results; read-out: Cell Harvester Ki
# Summary of the method: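 Scintillation counting of filter-bound [3H]histamine after rapid harvesting on 0.5% PEI-treated GF/C filters with ice-cold Tris/EDTA washes. Receptor source: 30,000 g membrane pellets of SK-N-MC cells stably or transiently expressing human H4. Values shown as '>' are the top concentration tested.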
# human H4 receptor, sequence (Q9H3N8 whole entry): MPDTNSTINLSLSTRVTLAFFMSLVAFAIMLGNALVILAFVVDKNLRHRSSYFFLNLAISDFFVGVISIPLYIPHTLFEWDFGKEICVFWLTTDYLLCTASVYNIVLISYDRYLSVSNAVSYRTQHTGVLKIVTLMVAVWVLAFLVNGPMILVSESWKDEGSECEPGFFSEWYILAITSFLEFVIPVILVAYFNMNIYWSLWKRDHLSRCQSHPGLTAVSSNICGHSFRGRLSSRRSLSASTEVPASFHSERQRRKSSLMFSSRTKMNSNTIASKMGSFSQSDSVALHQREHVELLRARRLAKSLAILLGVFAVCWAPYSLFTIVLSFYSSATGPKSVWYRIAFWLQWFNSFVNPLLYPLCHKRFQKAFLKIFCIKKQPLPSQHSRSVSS
row,Compound,Ki
1,"CN[C@@H]1CCN(c2ccnc(NCCc3ccccc3)n2)C1 [Example 183, 4-[(3R)-3-(Methylamino)pyrrolidin-1-yl]-N-(2-phenylethyl)pyrimidin-2-amine]",15.6 nM
2,"CSCCNc1nccc(N2CCNCC2)n1 [Example 124, N-[2-(Methylsulfanyl)ethyl]-4-piperazin-1-ylpyrimidin-2-amine]",155 nM
3,"CC1(C)[C@@H]2CC[C@@]1(C)[C@@H](Nc1nccc(N3C[C@H]4CCN[C@H]4C3)n1)C2 [Example 125, 4-[(3aR,6aR)-Hexahydropyrrolo[3,4-b]pyrrol-5(1H)-yl]-N-[(1R,2S,4R)-1,7,7-trimethylbicyclo[2.2.1]hept-2-yl]pyrimidin-2-amine]",2.1 nM
4,"CC(C)(O)CNc1nccc(N2CC[C@@H](N)C2)n1 [Example 27, 1-({4-[(3R)-3-Aminopyrrolidin-1-yl]pyrimidin-2-yl}amino)-2-methylpropan-2-ol]",67.7 nM
5,"OCCCNc1nccc(N2CCNCC2)n1 [Example 137, 3-[(4-Piperazin-1-ylpyrimidin-2-yl)amino]propan-1-ol]",1380 nM
6,"CN[C@@H]1CCN(c2ccnc(NCc3ccccc3)c2)C1 [Example 11, N-Benzyl-4-[(3R)-3-(methylamino)pyrrolidin-1-yl]pyridin-2-amine]",12.9 nM
7,"N[C@@H]1CCN(c2ccnc(NCC3CCCC3)c2)C1 [Example 278, 4-[(3R)-3-Aminopyrrolidin-1-yl]-N-(cyclopentylmethyl)pyridin-2-amine]",7.29 nM
8,"CNC1CN(c2ccnc(NC3C[C@H]4C[C@@H](C3C)C4(C)C)c2)C1 (stereo partly drawn) [Example 284, 4-[3-(Methylamino)azetidin-1-yl]-N-[(1S,5R)-2,6,6-trimethylbicyclo[3.1.1]hept-3-yl]pyridin-2-amine]",42.3 nM
9,"c1nnc(NCC2CCCC2)cc1N1CCCNCC1 [Example 316, N-(Cyclopentylmethyl)-5-(1,4-diazepan-1-yl)pyridazin-3-amine]",275 nM
10,"CNC1CN(c2ccnc(NCC3CCC4CC3C4(C)C)n2)C1 (stereo not drawn) [Example 105, N-[(6,6-Dimethylbicyclo[3.1.1]hept-2-yl)methyl]-4-[3-(methylamino)azetidin-1-yl]pyrimidin-2-amine]",165 nM
11,"CNC1CN(c2ccnc(NCCOC)c2)C1 [Example 286, N-(2-Methoxyethyl)-4-[3-(methylamino)azetidin-1-yl]pyridin-2-amine]",88.3 nM
12,"COCCNc1cc(N2CCN(C)CC2)cnn1 [Example 405, N-(2-Methoxyethyl)-5-(4-methylpiperazin-1-yl)pyridazin-3-amine]",> 10000 nM
13,"c1ccc(CNc2cc(N3CCNCC3)cnn2)cc1 [Example 348, N-Benzyl-5-piperazin-1-ylpyridazin-3-amine]",> 10000 nM
14,"CNC1CN(c2cnnc(NCC(C)(C)C)c2)C1 [Example 324, N-(2,2-Dimethylpropyl)-5-[3-(methylamino)azetidin-1-yl]pyridazin-3-amine]",899 nM
15,"CC(C)(CO)CNc1nccc(N2CC(N)C2)n1 [Example 151, 3-{[4-(3-Aminoazetidin-1-yl)pyrimidin-2-yl]amino}-2,2-dimethylpropan-1-ol]",1460 nM
16,"N[C@@H]1CCN(c2cnnc(NCCc3ccccc3)c2)C1 [Example 364, 5-[(3R)-3-Aminopyrrolidin-1-yl]-N-(2-phenylethyl)pyridazin-3-amine]",1740 nM
17,"c1nnc(NCC2CCCC2)cc1N1CCNCC1 [Example 363, N-(Cyclopentylmethyl)-5-piperazin-1-ylpyridazin-3-amine]",4730 nM
18,"CN[C@H]1CCN(c2cnnc(NCCCO)c2)C1 [Example 403, 3-({5-[(3S)-3-(Methylamino)pyrrolidin-1-yl]pyridazin-3-yl}amino)propan-1-ol]",> 10000 nM

row,Compound,Ki
1,"CN1CCN(c2ccnc(NCCCO)c2)CC1 [Example 216, 3-{[4-(4-Methylpiperazin-1-yl)pyridin-2-yl]amino}propan-1-ol]",1430 nM
2,"CN[C@@H]1CCN(c2ccnc(NCC3CCCC3)c2)C1 [Example 226, N-(Cyclopentylmethyl)-4-[(3R)-3-(methylamino)pyrrolidin-1-yl]pyridin-2-amine]",3.81 nM
3,"C[C@@H](Nc1cc(N2CCNCC2)cnn1)c1ccccc1 [Example 349, N-[(1R)-1-Phenylethyl]-5-piperazin-1-ylpyridazin-3-amine]",> 10000 nM
4,"COCCNc1cc(N2CC[C@@H](N)C2)cnn1 [Example 298, 5-[(3R)-3-Aminopyrrolidin-1-yl]-N-(2-methoxyethyl)pyridazin-3-amine]",> 10000 nM
5,"CN[C@@H]1CCN(c2cnnc(NCC3CCCCC3)c2)C1 [Example 391, N-(Cyclohexylmethyl)-5-[(3R)-3-(methylamino)pyrrolidin-1-yl]pyridazin-3-amine]",36.5 nM
6,"CC(C)Nc1cc(N2CC[C@@H](N)C2)ccn1 [Example 13, 4-[(3R)-3-Aminopyrrolidin-1-yl]-N-(1-methylethyl)pyridin-2-amine]",26.2 nM
7,"CN[C@@H]1CCN(c2ccnc(NCc3ccccn3)n2)C1 [Example 83, [4-(3R)-(3-Methylamino-pyrrolidin-1-yl)-pyrimidin-2-yl]-pyridin-2-ylmethyl-amine]",196 nM
8,"N[C@@H]1CCN(c2ccnc(NCc3ccc(F)cc3)n2)C1 [Example 57, 4-[(3R)-3-Aminopyrrolidin-1-yl]-N-(4-fluorobenzyl)pyrimidin-2-amine]",140 nM
9,"c1ccc(Nc2cc(N3CCNCC3)ccn2)cc1 [Example 38, N-Phenyl-4-piperazin-1-ylpyridin-2-amine]",275 nM
10,"c1ccc(CNc2cc(N3CCNCC3)ccn2)cc1 [Example 18, N-Benzyl-4-piperazin-1-ylpyridin-2-amine dihydrochloride]",527 nM
11,"N[C@@H]1CCN(c2ccnc(NC3CC4CCC3C4)c2)C1 (stereo partly drawn) [Example 270, 4-[(3R)-3-Aminopyrrolidin-1-yl]-N-bicyclo[2.2.1]hept-2-ylpyridin-2-amine]",3.53 nM
12,"N[C@@H]1CCN(c2ccnc(NC3CCCCC3)n2)C1 [Example 181, 4-[(3R)-3-Aminopyrrolidin-1-yl]-N-cyclohexylpyrimidin-2-amine]",9.07 nM
13,"c1nnc(NCC2CCCC2)cc1N1C[C@H]2CCN[C@H]2C1 [Example 360, N-(Cyclopentylmethyl)-5-[(3aR,6aR)-hexahydropyrrolo[3,4-b]pyrrol-5(1H)-yl]pyridazin-3-amine]",1170 nM
14,"CN[C@@H]1CCN(c2cnnc(NC3CC3)c2)C1 [Example 377, N-Cyclopropyl-5-[(3R)-3-(methylamino)pyrrolidin-1-yl]pyridazin-3-amine]",699 nM
15,"CN[C@@H]1CCN(c2ccnc(NCC3CC3)n2)C1 [Example 77, Cyclopropylmethyl-[4-(3R)-(3-methylamino-pyrrolidin-1-yl)-pyrimidin-2-yl]-amine]",3.3 nM
16,"N[C@@H]1CCN(c2ccnc(NC3CCCC3)n2)C1 [Example 25, 4-[(3R)-3-Aminopyrrolidin-1-yl]-N-cyclopentylpyrimidin-2-amine]",3.8 nM
17,"CN[C@@H]1CCN(c2ccnc(NC3CC3)c2)C1 [Example 8, N-Cyclopropyl-4-[(3R)-3-(methylamino)pyrrolidin-1-yl]pyridin-2-amine dihydrochloride]",10.6 nM
18,"NC1CN(c2ccnc(NC3CC4CCC3C4)n2)C1 (stereo not drawn) [Example 87, 4-(3-Aminoazetidin-1-yl)-N-bicyclo[2.2.1]hept-2-ylpyrimidin-2-amine]",33.7 nM
